The record followed here is patent publication US20100150911A1, “METHODS AND SYSTEMS OF TREATING AGE-RELATED MACULAR-DEGENERATION” (OPTO GLOBAL HOLDINGS PTY LTD, priority 2007, published 2010).

For the assay, the system named is subfoveal choroidal neovascularization (CNV) secondary to age-related macular degeneration (AMD). Nature of the assay: Indocyanine green mediated photothrombosis (i-MP) with and without intravitreal Bevacizumab in patients (Example 4). It is filed as in vivo, human.

Turning to “i-MP+intravitreal Bevacizumab: i-MP combined with an intravitreal injection of Bevacizumab (Avastin), an anti-VEGF compound”, for the setting “10 months of follow-up, 25 eyes”, the “need to perform a second treatment session” value is given as “not required”. The “eyes with improvement of the visual acuity in 2 lines (Group B: almost 2 lines) with staining in the fluorescein angiography” value (10 months of follow-up, 25 eyes per group) turned out to be 68%. The “response of the choroidal neovascular membranes (fluorescein angiography and OCT)” value (10 months of follow-up, compared with i-MP alone) is recorded as “responded better”. The “visual acuity obtained by a single patient” value (left eye, occult CNV, visual acuity 0.1 before treatment, 10 months after treatment) was 0.3.
